Article PMC11012124, “Synthesis of Novel Triazine-Based Chalcones and 8,9-dihydro-7H-pyrimido[4,5-b][1,4]diazepines as Potential Leads in the Search of Anticancer, Antibacterial and Antifungal Agents” (International Journal of Molecular Sciences, 2024)
Values after ≈ are worked out from the molar mass of the structure shown.

Experiments:
[1] = system: M. tuberculosis ATCC 27294; assay: Antitubercular broth microdilution MIC; type: cell-based; details: Mycobacterium tuberculosis; M. tuberculosis ATCC 27294 (H37Rv); read-out: Minimum inhibitory concentration (MIC)
[2] = system: A. flavus (ATCC 9170); assay: Antifungal broth microdilution (CLSI); type: cell-based; details: ATCC9170; Afl: Aspergillus flavus
Procedure: (§1) Several of the obtained triazine derivatives were evaluated against sensitive fungal species comprising of two yeasts (Candida albicans (ATCC 10231), Cryptococcus neoformans (ATCC 32264)), three dermatophytes (Microsporum gypseum (CCC 115), Trichophyton rubrum (CCC 134-2000), Trichophyton mentagrophytes (CCC 202-2000)), and three Aspergillus fungi ((A. [NT] 26934), A. niger (ATCC 9029), and A. flavus (ATCC 9170)). […] Broth microdilution techniques were performed in 96-well microplates according to the Reference Method for Broth Dilution Antifungal Susceptibility Testing of Yeasts, document M27-A3 [86] and of Filamentous Fungi […]-A8 [87]. […] An inoculum suspension (100 μL) was added to each well (final well volume = 200 μL). One growth control well (containing medium, inoculum, and the same amount of DMSO as used for each compound) and one sterility control well (sample, medium, and sterile water instead of inoculum) were included for each fungus tested. Microtiter plates were incubated in a dark, humid chamber at 30 °C for the time necessary for each fungus. Amphotericin B, Terbinafine, Fluconazole and Itraconazole were used as a positive control. The tests were performed in triplicate.

[3] = system: Trichophyton mentagrophytes (CCC 202-2000); assay: Antifungal broth microdilution (CLSI); type: cell-based; details: Tm: Trichophyton mentagrophytes
Procedure: as §1

[4] = system: SR; assay: cells; details: Homo sapiens, 48 h
[5] = system: HOP-62; assay: cells; details: Homo sapiens, HOP-62, 48 h; for CC50: read-out: LC50
[6] = system: NCI-H322M; assay: cells; details: Homo sapiens, 48 h; for CC50: read-out: LC50
[7] = system: NCI-H522; assay: cells; details: Homo sapiens, NCI-H522, 48 h; for CC50: read-out: LC50
[8] = system: COLO 205; assay: cells; details: Homo sapiens, COLO 205, 48 h; for CC50: read-out: LC50
[9] = system: HCT-15; assay: cells; details: Homo sapiens, HCT-15, 48 h; for CC50: read-out: LC50
[10] = system: HT29; assay: cells; details: Homo sapiens, HT-29, 48 h; for CC50: read-out: LC50
[11] = system: KM12; assay: cells; details: Homo sapiens, KM12, 48 h; for CC50: read-out: LC50
[12] = system: SF-268; assay: cells; details: Homo sapiens, SF-268, 48 h; for CC50: read-out: LC50
[13] = system: SF-295; assay: cells; details: Homo sapiens, SF-295, 48 h; for CC50: read-out: LC50
[14] = system: SNB-19; assay: cells; details: Homo sapiens, SNB-19, 48 h; for CC50: read-out: LC50
[15] = system: U251; assay: cells; details: Homo sapiens, U-251, 48 h; for GI50: U251, 48 h; for CC50: read-out: LC50
[16] = system: SK-MEL-2; assay: cells; details: Homo sapiens, SK-MEL-2, 48 h; for CC50: read-out: LC50
[17] = system: SK-MEL-5; assay: cells; details: Homo sapiens, SK-MEL-5, 48 h; for CC50: read-out: LC50
[18] = system: UACC-62; assay: cells; details: Homo sapiens, UACC-62, 48 h; for CC50: read-out: LC50
[19] = system: OVCAR-3; assay: cells; details: Homo sapiens, OVCAR-3, 48 h; for CC50: read-out: LC50
[20] = system: OVCAR-4; assay: cells; details: Homo sapiens, OVCAR-4, 48 h; for CC50: read-out: LC50
[21] = system: NCI/ADR-RES; assay: cells; details: Homo sapiens, 48 h; for CC50: read-out: LC50
[22] = system: 786-0; assay: cells; details: Homo sapiens, 786-0, 48 h; for CC50: read-out: LC50
[23] = system: CAKI-1; assay: cells; details: Homo sapiens, CAKI-1, 48 h; for CC50: read-out: LC50
[24] = system: UO-31; assay: cells; details: Homo sapiens, UO-31, 48 h; for CC50: read-out: LC50
[25] = system: DU-145; assay: cells; details: Homo sapiens, DU-145, 48 h; for CC50: read-out: LC50
[26] = system: T-47D; assay: cells; details: Homo sapiens, T47D, 48 h; for CC50: read-out: LC50
[27] = system: MDA-MB-468; assay: cells; details: Homo sapiens, MDA-MB-468, 48 h; for CC50: read-out: LC50
[28] = system: N. gonorrhoeae ATCC 49226; assay: MIC on GC agar plates; type: cell-based, Neisseria gonorrhoeae; details: Neisseria gonorrhoeae, ATCC49226, read-out: MIC
Summary of the method: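 N. gonorrhoeae (1 × 10^4 CFU) was spotted onto IsoVitaleX-supplemented (1%) GC agar containing graded compound levels. The lowest inhibitory concentration was recorded as the MIC, with oxidase testing used to verify growth, and each assay was done in duplicate on at least two separate occasions.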

## COc1ccc(/C=C/C(=O)c2ccc(S(=O)(=O)NCCNc3nc(Nc4ccc(F)cc4)nc(N(C)C)n3)cc2)cc1 [24c]
[1]
  MIC: 25 µg/mL (≈ 42.3 µM)
[2]
  MIC: > 250 µg/mL
[3]
  MIC: > 250 µg/mL
[4]
  GI50: 2.97 µM
[4]; read-out: LC50
  CC50: > 100 µM
[5]
  GI50: 17.1 µM
  CC50: > 100 µM
[6]
  GI50: 10.2 µM
  CC50: > 100 µM
[7]
  GI50: 2.55 µM
  CC50: 67.1 µM
[8]
  GI50: 3.46 µM
  CC50: 45.7 µM
[9]
  GI50: 2.71 µM
  CC50: 27.4 µM
[10]
  GI50: 1.83 µM
  CC50: 7.63 µM
[11]
  GI50: 4.01 µM
  CC50: 72 µM
[12]
  GI50: 4.43 µM
  CC50: > 100 µM
[13]
  GI50: 5.05 µM
  CC50: 62.4 µM
[14]
  GI50: 5.58 µM
  CC50: > 100 µM
[15]
  GI50: 6.7 µM
  CC50: 55.3 µM
[16]
  GI50: 8.1 µM
  CC50: 53.4 µM
[17]
  GI50: 3.5 µM
  CC50: 36.4 µM
[18]
  GI50: 4.79 µM
  CC50: 51.6 µM
[19]
  GI50: 5.01 µM
  CC50: 59.4 µM
[20]
  GI50: 4.12 µM
  CC50: > 100 µM
[21]
  GI50: 5.66 µM
  CC50: > 100 µM
[22]
  GI50: 6.33 µM
  CC50: > 100 µM
[23]
  GI50: 3.34 µM
  CC50: > 100 µM
[24]
  GI50: 3.78 µM
  CC50: > 100 µM
[25]
  GI50: 7.54 µM
  CC50: > 100 µM
[26]
  GI50: 3.78 µM
  CC50: > 100 µM
[27]
  GI50: 2.57 µM
  CC50: 52.6 µM

## CN(C)c1nc(NCCNS(=O)(=O)c2ccc(C(=O)/C=C/c3ccc(Cl)cc3)cc2)nc(Nc2ccc(F)cc2)n1 [24e]
[28]
  MIC: 500 µg/mL (≈ 839 µM)
[1]
  MIC: 25 µg/mL (≈ 41.9 µM)
[2]
  MIC: > 250 µg/mL
[3]
  MIC: 125 µg/mL (≈ 210 µM)
[5]
  GI50: 12.5 µM
  CC50: 27.5 µM
[6]
  GI50: 9.36 µM
  CC50: 24.9 µM
[7]
  GI50: 7.1 µM
  CC50: 22 µM
[8]
  GI50: 5.96 µM
  CC50: 18.7 µM
[9]
  GI50: 4.62 µM
  CC50: 16.9 µM
[10]
  GI50: 2.15 µM
  CC50: 5.72 µM
[11]
  GI50: 2.97 µM
  CC50: 9.1 µM
[12]
  GI50: 6.21 µM
  CC50: 23.5 µM
[13]
  GI50: 6.11 µM
  CC50: 19.8 µM
[14]
  GI50: 9.18 µM
  CC50: 21.3 µM
[15]
  GI50: 5.25 µM
  CC50: 18.6 µM
[16]
  GI50: 5.47 µM
  CC50: 19.5 µM
[17]
  GI50: 5.89 µM
  CC50: 18.8 µM
[18]
  GI50: 5.41 µM
  CC50: 18.7 µM
[19]
  GI50: 3.16 µM
  CC50: 11.9 µM
[20]
  GI50: 5.92 µM
  CC50: 22 µM
[21]
  GI50: 5.49 µM
  CC50: 18.4 µM
[22]
  GI50: 7.28 µM
  CC50: 20.2 µM
[23]
  GI50: 4.93 µM
  CC50: 19.5 µM
[24]
  GI50: 4 µM
  CC50: 16.6 µM
[25]
  GI50: 9.7 µM
  CC50: 21.8 µM
[26]
  GI50: 4.37 µM
  CC50: 18 µM
[27]
  GI50: 3.71 µM
  CC50: 14.8 µM
